Assay results taken from patent US20080182859A1 (Curis, Inc., priority 2006, published 2008).
Structures can show the parent of a compound that is named as a salt.

How the values were obtained:
sonic hedgehog pathway [1] = assay: Human hedgehog reporter assay Daoy-GliLuc (DGL); assay type: cell-based; details: Daoy human medulloblastoma cells, Gli-luciferase reporter; read-out: Daoy Avg. EC50
Excerpt: (§1) Mouse (TM3: mouse Leydig cells; S12: mouse embryonic mesenchymal cells) and human (Daoy: human medulloblastoma cell; HepM: human embryonic palatal mesenchymal cell) cell lines are used to screen small molecules for their ability to modulate the activity of the sonic hedgehog pathway (Table 1, Table 2, and Table 3). Stable hedgehog pathway reporter cell lines are established by specific antibiotic selection following transfection of a reporter plasmid containing a luciferase gene located directly downstream from the gli promoter. Consequently, any observable changes in cellular luciferase activity may be attributed to changes in sonic hedgehog pathway activity in mouse and human cells, respectively, since gli is the major by-product of this pathway. To calculate activity, we generate an eleven point dose curve for each compound using 1:3 dilutions in 96 well assay plates. Each plate tested also contains low and high control to establish maximal pathway activation so to establish/compare a percentage activation of each tested compound (AMAX) on respective plates. Also we calculate EC50 values, or a concentration where the pathway will be exactly 50% activated, for each tested compound to determine potency. In these cell lines, compounds that register >20% AMAX values are considered active.
(§2) Stable hedgehog pathway reporter cell lines are established following specific antibiotic selection following transfection of a reporter plasmid In short, typically cells are plated in MicroTiter-plates at 10,000-20,000 cells per well, in growth media (containing 10%-20% FBS). After 48-72 hrs (HGL and DGL respectively) the media in the assay plates is switched to low-serum containing media (0.5% FBS). At that time compounds are added (at 1-5 μM) to the assay plates, in the presence or absence of hedgehog protein (octyl-modified version; 1-5 ng/ml). After another 24 hrs of incubation, the media from the assay plates is discarded and replaced with luciferase assay-mix. Subsequently, plates are incubated at RT for ˜15-30 mins and then read in a luminometer. [note: addition of the Hedgehog protein, although not critical, will sensitize the assay allowing the identification of weak actives].

sonic hedgehog pathway [2] = assay: Hedgehog pathway Gli-luciferase reporter assay, TM3 cells; assay type: cell-based; details: TM3 mouse Leydig cells
Excerpt: as §1, §2

With `CN[C@H]1CC[C@@H](N(Cc2cc(-c3ccc(C(F)(F)F)cc3)ccc2OC)C(=O)c2sc3ccccc3c2Cl)CC1` [Compound 306, 3-Chloro-benzo[b]thiophene-2-carboxylic acid (4-methoxy-4′-trifluoromethyl-biphenyl-3-ylmethyl)-(4-methylamino-cyclohexyl)-amide trifluoroacetate] the EC50 (sonic hedgehog pathway [1]) was < 50 nM and the EC50 (sonic hedgehog pathway [2]) was 50 to 250 nM.

`CN[C@H]1CC[C@@H](N(Cc2cc(-c3ccc(OC(F)(F)F)cc3)ccc2OC)C(=O)c2sc3ccccc3c2Cl)CC1` [Compound 307, 3-Chloro-benzo[b]thiophene-2-carboxylic acid (4-methoxy-4′-trifluoromethoxy-biphenyl-3-ylmethyl)-(4-methylamino-cyclohexyl)-amide hydrochloride] was tested, and the EC50 (sonic hedgehog pathway [1]) was < 50 nM and the EC50 (sonic hedgehog pathway [2]) was < 50 nM.

With `CN[C@H]1CC[C@@H](N(Cc2cc(-c3ccc(Cl)cc3)ccc2OC)C(=O)c2sc3ccccc3c2Cl)CC1` [Compound 308, 3-Chloro-benzo[b]thiophene-2-carboxylic acid (4′-chloro-4-methoxy-biphenyl-3-ylmethyl)-(4-methylamino-cyclohexyl)-amide hydrochloride] the EC50 (sonic hedgehog pathway [1]) was < 50 nM and the EC50 (sonic hedgehog pathway [2]) was < 50 nM.

For `CCOc1ccc(-c2ccc(C(F)(F)F)cc2)cc1CN(C(=O)c1sc2ccccc2c1Cl)[C@H]1CC[C@@H](NC)CC1` [Compound 309, 3-Chloro-benzo[b]thiophene-2-carboxylic acid (4-ethoxy-4′-trifluoromethyl-biphenyl-3-ylmethyl)-(4-methylamino-cyclohexyl)-amide hydrochloride], the EC50 (sonic hedgehog pathway [1]) was < 50 nM and the EC50 (sonic hedgehog pathway [2]) was 50 to 250 nM.

`CCOc1ccc(-c2ccc(OC)cc2)cc1CN(C(=O)c1sc2ccccc2c1Cl)[C@H]1CC[C@@H](NC)CC1` [Compound 312, 3-Chloro-benzo[b]thiophene-2-carboxylic acid (4-ethoxy-4′-methoxy-biphenyl-3-ylmethyl)-(4-methylamino-cyclohexyl)-amide hydrochloride] gave an EC50 (sonic hedgehog pathway [1]) of 50 to 250 nM.

For `CCOc1ccc(-c2ccccc2)cc1CN(C(=O)c1sc2ccccc2c1Cl)[C@H]1CC[C@@H](NC)CC1` [Compound 313, 3-Chloro-benzo[b]thiophene-2-carboxylic acid (4-ethoxy-biphenyl-3-ylmethyl)-(4-methylamino-cyclohexyl)-amide hydrochloride], the EC50 (sonic hedgehog pathway [1]) was < 50 nM and the EC50 (sonic hedgehog pathway [2]) was 50 to 250 nM.

In the case of `CN[C@H]1CC[C@@H](N(Cc2cc(-c3ccc(F)cc3)ccc2OC)C(=O)c2sc3ccccc3c2Cl)CC1` [Compound 314, 3-Chloro-benzo[b]thiophene-2-carboxylic acid (4′-fluoro-4-methoxy-biphenyl-3-ylmethyl)-(4-methylamino-cyclohexyl)-amide hydrochloride], the EC50 (sonic hedgehog pathway [1]) is reported as < 50 nM and the EC50 (sonic hedgehog pathway [2]) is reported as < 50 nM.

Molecule `CN[C@H]1CC[C@@H](N(Cc2cc(-c3cnc(N(C)C)nc3)ccc2OC)C(=O)c2sc3ccccc3c2Cl)CC1` [Compound 321, 3-Chloro-benzo[b]thiophene-2-carboxylic acid [5-(2-dimethylamino-pyrimidin-5-yl)-2-methoxy-benzyl]-(4-methylamino-cyclohexyl)-amide dihydrochloride] has an EC50 (sonic hedgehog pathway [1]) of 50 to 250 nM and an EC50 (sonic hedgehog pathway [2]) of 1000 to 2500 nM.

For `CNc1ncc(-c2ccc(OC)c(CN(C(=O)c3sc4ccccc4c3Cl)[C@H]3CC[C@@H](NC)CC3)c2)cn1` [Compound 322, 3-Chloro-benzo[b]thiophene-2-carboxylic acid [2-methoxy-5-(2-methylamino-pyrimidin-5-yl)-benzyl]-(4-methylamino-cyclohexyl)-amide dihydrochloride], the EC50 (sonic hedgehog pathway [1]) was 50 to 250 nM and the EC50 (sonic hedgehog pathway [2]) was 250 to 1000 nM.

For `CN[C@H]1CC[C@@H](N(Cc2cc(-c3cnc(N)nc3)ccc2OC)C(=O)c2sc3ccccc3c2Cl)CC1` [Compound 323, 3-Chloro-benzo[b]thiophene-2-carboxylic acid [5-(2-amino-pyrimidin-5-yl)-2-methoxy-benzyl]-(4-methylamino-cyclohexyl)-amide dihydrochloride], the EC50 (sonic hedgehog pathway [1]) was < 50 nM and the EC50 (sonic hedgehog pathway [2]) was 50 to 250 nM.

In the case of `CN[C@H]1CC[C@@H](N(Cc2cc(-c3cccc(C(C)=O)c3)ccc2OC)C(=O)c2sc3cccc(F)c3c2Cl)CC1` [Compound 363, 3-Chloro-4-fluoro-benzo[b]thiophene-2-carboxylic acid (3′-acetyl-4-methoxy-biphenyl-3-ylmethyl)-(4-methylamino-cyclohexyl)-amide hydrochloride], the EC50 (sonic hedgehog pathway [1]) is reported as < 50 nM and the EC50 (sonic hedgehog pathway [2]) is reported as < 50 nM.

For `CN[C@H]1CC[C@@H](N(Cc2cc(-c3cccc(C#N)c3)ccc2OC)C(=O)c2sc3cccc(F)c3c2Cl)CC1` [Compound 365, 3-Chloro-4-fluoro-benzo[b]thiophene-2-carboxylic acid (3′-cyano-4-methoxy-biphenyl-3-ylmethyl)-(4-methylamino-cyclohexyl)-amide hydrochloride], the EC50 (sonic hedgehog pathway [1]) was < 50 nM and the EC50 (sonic hedgehog pathway [2]) was < 50 nM.

For `CN[C@H]1CC[C@@H](N(Cc2cc(-c3ccc(C#N)cc3)ccc2OC)C(=O)c2sc3cccc(F)c3c2Cl)CC1` [Compound 366, 3-Chloro-4-fluoro-benzo[b]thiophene-2-carboxylic acid (4′-cyano-4-methoxy-biphenyl-3-ylmethyl)-(4-methylamino-cyclohexyl)-amide hydrochloride], the EC50 (sonic hedgehog pathway [1]) was < 50 nM and the EC50 (sonic hedgehog pathway [2]) was < 50 nM.

`CCOc1ccc(-c2cnc(N(C)C)nc2)cc1CN(C(=O)c1sc2ccccc2c1Cl)[C@H]1CC[C@H](NC)CC1` [Compound 401, 3-Chloro-benzo[b]thiophene-2-carboxylic acid [5-(2-dimethylamino-pyrimidin-5-yl)-2-ethoxy-benzyl]-(4-methylamino-cyclohexyl)-amide dihydrochloride] was tested, and the EC50 (sonic hedgehog pathway [2]) was 1000 to 2500 nM.

`CN[C@H]1CC[C@H](N(Cc2cc(-c3ccnc(C(C)=O)c3)ccc2OC)C(=O)c2sc3c(F)ccc(F)c3c2Cl)CC1` [Compound 407, 3-Chloro-4,7-difluoro-benzo[b]thiophene-2-carboxylic acid [5-(2-acetyl-pyridin-4-yl)-2-methoxy-benzyl]-(4-methylamino-cyclohexyl)-amide dihydrochloride] was tested, and the EC50 (sonic hedgehog pathway [2]) was < 50 nM.

Work on `CN[C@H]1CC[C@H](N(Cc2cc(-c3ccc(OC)cc3)ccc2F)C(=O)c2sc3ccccc3c2Cl)CC1` [Compound 421, 3-Chloro-benzo[b]thiophene-2-carboxylic acid (4-fluoro-4′-methoxy-biphenyl-3-ylmethyl)-(4-methylamino-cyclohexyl)-amide trifluoroacetate] yielded an EC50 (sonic hedgehog pathway [2]) of 250 to 1000 nM.

Molecule `CN[C@H]1CC[C@H](N(Cc2cc(-c3ccc(C(F)(F)F)cc3)ccc2F)C(=O)c2sc3ccccc3c2Cl)CC1` [Compound 422, 3-Chloro-benzo[b]thiophene-2-carboxylic acid (4-fluoro-4′-trifluoromethyl-biphenyl-3-ylmethyl)-(4-methylamino-cyclohexyl)-amide trifluoroacetate] has an EC50 (sonic hedgehog pathway [2]) of 250 to 1000 nM.

Molecule `CN[C@H]1CC[C@H](N(Cc2cc(-c3ccc(C)cc3)ccc2F)C(=O)c2sc3ccccc3c2Cl)CC1` [Compound 427, 3-Chloro-benzo[b]thiophene-2-carboxylic acid (4-fluoro-4′-methyl-biphenyl-3-ylmethyl)-(4-methylamino-cyclohexyl)-amide trifluoroacetate] has an EC50 (sonic hedgehog pathway [2]) of 250 to 1000 nM.

`CN[C@H]1CC[C@H](N(Cc2cc(-c3ccc(Cl)cc3)ccc2F)C(=O)c2sc3ccccc3c2Cl)CC1` [Compound 428, 3-Chloro-benzo[b]thiophene-2-carboxylic acid (4′-chloro-4-fluoro-biphenyl-3-ylmethyl)-(4-methylamino-cyclohexyl)-amide trifluoroacetate] showed an EC50 (sonic hedgehog pathway [2]) of 250 to 1000 nM.

For `CN[C@H]1CC[C@H](N(Cc2cc(-c3ccc(NC(C)=O)cc3)ccc2F)C(=O)c2sc3ccccc3c2Cl)CC1` [Compound 429, 3-Chloro-benzo[b]thiophene-2-carboxylic acid (4′-acetylamino-4-fluoro-biphenyl-3-ylmethyl)-(4-methylamino-cyclohexyl)-amide trifluoroacetate], the EC50 (sonic hedgehog pathway [2]) was 1000 to 2500 nM.

`CN[C@H]1CC[C@H](N(Cc2cc(-c3ccc(N(C)C(C)=O)cc3)ccc2F)C(=O)c2sc3ccccc3c2Cl)CC1` [Compound 430, 3-Chloro-benzo[b]thiophene-2-carboxylic acid [4′-(acetyl-methyl-amino)-4-fluoro-biphenyl-3-ylmethyl]-(4-methylamino-cyclohexyl)-amide trifluoroacetate] was tested, and the EC50 (sonic hedgehog pathway [2]) was 1000 to 2500 nM.

Work on `CN[C@H]1CC[C@H](N(Cc2cc(-c3ccc(NC=O)cc3)ccc2F)C(=O)c2sc3ccccc3c2Cl)CC1` [Compound 431, 3-Chloro-benzo[b]thiophene-2-carboxylic acid (4-fluoro-4′-formylamino-biphenyl-3-ylmethyl)-(4-methylamino-cyclohexyl)-amide trifluoroacetate] yielded an EC50 (sonic hedgehog pathway [2]) of 50 to 250 nM.

With `CNc1ccc(-c2ccc(F)c(CN(C(=O)c3sc4ccccc4c3Cl)[C@H]3CC[C@H](NC)CC3)c2)cc1` [Compound 432, 3-Chloro-benzo[b]thiophene-2-carboxylic acid (4-fluoro-4′-methylamino-biphenyl-3-ylmethyl)-(4-methylamino-cyclohexyl)-amide dihydrochloride] the EC50 (sonic hedgehog pathway [2]) was 250 to 1000 nM.
